Test results reported in ChEMBL document CHEMBL3585345 (ACS Med Chem Lett, 2015).
Calls of active or inactive are those of the source. No cut-off for these calls is given here.

Assays:
Aurora kinase B = Aurora kinase B (Homo sapiens, UniProt Q96GD4); test: Inhibition of aurora kinase B in human HCT116 cells assessed as inhibition of histone H3 phosphorylation by immunofluorescence analysis; assay type: cell-based, HCT-116
Aurora kinase A [1] = biological target: T1, Aurora kinase A (Mus musculus, UniProt P97477); test: Inhibition of recombinant mouse aurora kinase A expressed in insect Sf9 cells using biotin-GLRRASLG as substrate in presence of [gamma-33P]ATP
T1 sequence (P97477 whole entry): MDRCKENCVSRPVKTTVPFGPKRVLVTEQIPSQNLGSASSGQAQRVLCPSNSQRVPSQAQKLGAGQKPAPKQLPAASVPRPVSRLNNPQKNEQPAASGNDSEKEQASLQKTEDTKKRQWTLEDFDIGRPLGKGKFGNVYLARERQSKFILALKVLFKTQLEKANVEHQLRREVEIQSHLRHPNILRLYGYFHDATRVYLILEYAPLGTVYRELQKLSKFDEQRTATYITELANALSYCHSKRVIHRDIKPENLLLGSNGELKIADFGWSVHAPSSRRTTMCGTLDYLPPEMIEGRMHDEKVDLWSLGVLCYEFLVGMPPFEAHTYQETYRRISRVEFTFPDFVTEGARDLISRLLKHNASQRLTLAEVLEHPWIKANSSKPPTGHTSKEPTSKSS

HCT-116 = test: Cytotoxicity against human HCT116 cells assessed as inhibition of cell proliferation by BrdU incorporation assay; assay type: functional
[2] = Cmax in nude mouse brain at 30 mg/kg, po; assay type: ADME, organism-based; design: dose 30 mg/kg, route oral
[3] = AUC (0 to 8 hrs) in nude mouse brain at 30 mg/kg, po; assay type: ADME, organism-based; design: dose 30 mg/kg, time < 8 hr, route oral
in vivo = settings: nude, mouse, brain/plasma, po, 30 mg/kg
Plasma = test: AUC (0 to 8 hrs) in nude mouse plasma at 30 mg/kg, po; assay type: ADME, organism-based; design: dose 30 mg/kg, time < 8 hr, route oral; settings: in vivo
[4] = Aqueous solubility of the compound; assay type: physicochemical; settings: buffer
Caco-2 [5] = test: Permeability across apical to basolateral side in human Caco2 cells; assay type: ADME, cell-based
Caco-2 [6] = test: Permeability across basolateral to apical side in human Caco2 cells; assay type: ADME, cell-based
[7] = Cmax in po dosed Sprague-Dawley rat; assay type: ADME, organism-based; design: route oral; settings: in vivo
Rattus norvegicus [8] = test: In vivo binding affinity to GABAA receptor in po dosed Sprague-Dawley rat; assay type: ADME, organism-based
Rattus norvegicus [9] = test: AUC (0 to 24 hrs) in po dosed Sprague-Dawley rat; assay type: ADME, organism-based; design: time < 24 hr, route oral; settings: in vivo
[10] = biological target: T2, Gamma-aminobutyric acid receptor subunit alpha-1 (Homo sapiens, UniProt P14867); test: Binding affinity to GABAA alpha-1 benzodiazepine binding site (unknown origin)
T2 sequence (P14867 whole entry): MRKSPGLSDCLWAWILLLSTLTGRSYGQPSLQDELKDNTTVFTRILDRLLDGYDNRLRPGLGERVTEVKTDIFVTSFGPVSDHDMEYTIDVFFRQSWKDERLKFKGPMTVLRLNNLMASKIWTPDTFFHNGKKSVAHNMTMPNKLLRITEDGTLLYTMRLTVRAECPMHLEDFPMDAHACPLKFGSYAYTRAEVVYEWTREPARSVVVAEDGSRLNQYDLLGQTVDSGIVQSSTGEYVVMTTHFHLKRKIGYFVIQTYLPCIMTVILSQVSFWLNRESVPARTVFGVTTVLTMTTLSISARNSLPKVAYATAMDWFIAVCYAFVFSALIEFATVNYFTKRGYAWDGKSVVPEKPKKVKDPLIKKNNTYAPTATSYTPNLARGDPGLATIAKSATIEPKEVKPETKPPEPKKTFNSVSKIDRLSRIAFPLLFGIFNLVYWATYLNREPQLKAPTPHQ

Rattus norvegicus [11] = test: Toxicity in Sprague-Dawley rat assessed as GABAA related effect at maximum tolerated dose, po administered for 7 days; assay type: organism-based; settings: in vivo, 168 h
Aurora kinase A [12] = biological target: T3, Aurora kinase A (Homo sapiens, UniProt O14965); test: Inhibition of aurora kinase A autophosphorylation at T288 in human HCT116 cells by immunofluorescence analysis; assay type: cell-based, HCT-116
T3 sequence (O14965 whole entry): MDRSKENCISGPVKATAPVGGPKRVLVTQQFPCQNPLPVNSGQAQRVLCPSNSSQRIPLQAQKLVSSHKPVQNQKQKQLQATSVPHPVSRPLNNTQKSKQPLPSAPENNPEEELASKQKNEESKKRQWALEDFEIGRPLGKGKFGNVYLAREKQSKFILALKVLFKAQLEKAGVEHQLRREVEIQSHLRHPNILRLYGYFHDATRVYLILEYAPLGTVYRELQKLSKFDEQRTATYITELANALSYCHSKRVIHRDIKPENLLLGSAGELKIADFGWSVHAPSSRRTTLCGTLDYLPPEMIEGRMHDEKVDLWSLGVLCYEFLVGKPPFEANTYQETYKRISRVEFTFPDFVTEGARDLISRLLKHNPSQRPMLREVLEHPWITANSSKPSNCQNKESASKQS

Calu-6 [13] = test: Antitumor activity against human Calu6 cells xenografted in mouse assessed as tumor growth inhibition at 20 mg/kg, po bid administered for 21 days; assay type: functional, organism-based
Calu-6 [14] = test: Antitumor activity against human Calu6 cells xenografted in mouse assessed as tumor growth inhibition at 30 mg/kg, po bid administered for 21 days; assay type: functional, organism-based
[15] = Substrate activity at P-gp (unknown origin) transfected in MDCK cells; assay type: ADME, cell-based; settings: human
[16] = Volume of distribution at steady state in Sprague-Dawley rat at 1 mg/kg, iv; assay type: ADME, organism-based; settings: in vivo, read-out: Vdss
[17] = Terminal half life in Sprague-Dawley rat at 1 mg/kg, iv; assay type: ADME, organism-based; settings: in vivo, read-out: beta t1/2 (converted)
Rattus norvegicus [18] = test: Toxicity in Sprague-Dawley rat assessed as GABAA related effect administered as iv infusion measured within 5 mins; assay type: organism-based; settings: in vivo
Rattus norvegicus [19] = test: (§1) Oral bioavailability in Sprague-Dawley rat at 10 mg/kg; assay type: ADME, organism-based; settings: in vivo
[20] = Protein binding in plasma (unknown origin); assay type: ADME, cell-free; settings: read-out: PPB
[21] = Inhibition of human CYP450; assay type: ADME
Rattus norvegicus [22] = test: Toxicity in Sprague-Dawley rat assessed as mucositis at maximum tolerated dose, po administered for 7 days; assay type: organism-based; settings: in vivo, 168 h
Rattus norvegicus [23] = test: Toxicity in Sprague-Dawley rat assessed as myelosuppression at maximum tolerated dose, po administered for 7 days; assay type: organism-based; settings: in vivo, 168 h
Aurora kinase A [24] = biological target: T1, Aurora kinase A; test: Competitive inhibition of recombinant mouse aurora kinase A expressed in insect Sf9 cells in presence of ATP
[25] = Clearance in Sprague-Dawley rat at 1 mg/kg, iv; assay type: ADME, organism-based; settings: in vivo
Rattus norvegicus [26] = test: Toxicity in Sprague-Dawley rat assessed as reversible effect on central nervous system at maximum tolerated dose, po administered for 7 days; assay type: organism-based; settings: in vivo, 168 h
[27] = as §1; assay type: ADME, organism-based; settings: Sprague-Dawley, in vivo
[28] = Inhibition of CYP450 (unknown origin) up to 100 uM; assay type: ADME; settings: human

Sequence of Aurora kinase B (Q96GD4 whole entry): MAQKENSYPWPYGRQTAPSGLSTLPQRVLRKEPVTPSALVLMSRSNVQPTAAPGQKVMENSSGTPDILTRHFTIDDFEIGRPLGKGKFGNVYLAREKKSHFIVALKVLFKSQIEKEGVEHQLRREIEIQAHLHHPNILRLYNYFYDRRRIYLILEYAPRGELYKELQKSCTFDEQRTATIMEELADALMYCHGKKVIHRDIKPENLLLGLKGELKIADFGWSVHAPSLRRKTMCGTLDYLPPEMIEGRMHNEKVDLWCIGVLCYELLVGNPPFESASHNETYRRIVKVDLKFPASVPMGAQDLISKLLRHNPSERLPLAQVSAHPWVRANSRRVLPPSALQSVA

## O=C(O)c1ccc(Nc2ncc3c(n2)-c2ccc(Cl)cc2C(c2ccccc2F)=NC3)cc1
Aurora kinase B
  IC50: > 10000 nM
Aurora kinase A [1]
  IC50: 33 nM
HCT-116
  GI50: 950 nM

## O=C([O-])c1ccc(Nc2ncc3c(n2)-c2ccc(Cl)cc2C(c2c(F)cccc2F)=NC3)cc1.[Na+]
[2]
  Cmax: 2600 ng/mL
[3]
  AUC(0-t) at 8 h: 12500 ng·h/mL

## COc1cccc(F)c1C1=NCc2cnc(Nc3ccc(C(=O)[O-])cc3)nc2-c2ccc(Cl)cc21.[Na+]
[2]
  Cmax: 930 ng/mL
In vivo
  Kp: 0.06
[3]
  AUC(0-t) at 8 h: 3500 ng·h/mL
Plasma
  AUC: 54300 ng·h/mL

## COc1cc(Nc2ncc3c(n2)-c2ccc(Cl)cc2C(c2c(F)cccc2OC)=NC3)ccc1C(=O)[O-].[Na+]
[2]
  Cmax: 420 ng/mL
In vivo
  Kp: 0.03
[3]
  AUC(0-t) at 8 h: 2000 ng·h/mL

## O=C([O-])c1ccc(Nc2ncc3c(n2)-c2ccc(Cl)cc2C(c2ccccc2F)=NC3)cc1.[Na+]
[4]
  solubility: > 10000 µg/mL
Caco-2 [5]
  permeability: 58 ×10⁻⁶ cm/s
Caco-2 [6]
  permeability: 64 ×10⁻⁶ cm/s

## COc1cccc(F)c1C1=NCc2cnc(Nc3ccc(C(=O)O)cc3)nc2-c2ccc(Cl)cc21
Aurora kinase B
  IC50: 2500 nM
Aurora kinase A [1]
  IC50: 10 nM
[7]
  Cmax: 46000 ng/mL
Rattus norvegicus [8]
  Activity: Non-toxic
Rattus norvegicus [9]
  AUC: 244000 ng·h/mL
[10]
  IC50: 150 nM
HCT-116
  GI50: 130 nM
Rattus norvegicus [11]
  Activity: Non-toxic

## Nc1ncc2c(n1)-c1ccc(Cl)cc1C(c1ccccc1F)=NC2
Aurora kinase B
  IC50: > 10000 nM
Aurora kinase A [1]
  IC50: 1700 nM
Aurora kinase A [12]
  IC50: 6000 nM
HCT-116
  GI50: 11000 nM

## COc1cc(Nc2ncc3c(n2)-c2ccc(Cl)cc2C(c2c(F)cccc2OC)=NC3)ccc1C(=O)O
Calu-6 [13]
  TGI: Active

## O=C(O)c1ccc(Nc2ncc3c(n2)-c2ccc(Cl)cc2C(c2c(F)cccc2F)=NC3)cc1
Calu-6 [14]
  TGI: Active

## COc1cc(Nc2ncc3c(n2)-c2ccc(Cl)cc2C(c2c(F)cccc2OC)=NC3)ccc1C(=O)O [ALISERTIB]
[15]
  Activity: Not Active
Caco-2 [5]
  permeability: 62 ×10⁻⁶ cm/s
[16]
  Vd: 2.21 L/kg
[17]
  half-life: 7 h
Aurora kinase A [1]
  IC50: 1 nM
Rattus norvegicus [18]
  Activity: Toxic
Rattus norvegicus [19]
  F: 124%
[20]
  fraction unbound: < 0.03
[7]
  Cmax: 48000 ng/mL
Caco-2 [6]
  permeability: 47 ×10⁻⁶ cm/s
[21]
  IC50: > 100000 nM
Rattus norvegicus [22]
  Activity: Toxic
Rattus norvegicus [8]
  Activity: Non-toxic
Rattus norvegicus [9]
  AUC: 201000 ng·h/mL
[10]
  IC50: 490 nM
Rattus norvegicus [23]
  Activity: Toxic
Aurora kinase A [24]
  Ki: 0.3 nM
HCT-116
  GI50: 30 nM
Rattus norvegicus [11]
  Activity: Non-toxic

## O=C(O)c1ccc(Nc2ncc3c(n2)-c2ccc(Cl)cc2C(c2c(F)cccc2F)=NC3)cc1 [MLN-8054]
[15]
  Activity: Not Active
Caco-2 [5]
  permeability: 54 ×10⁻⁶ cm/s
[16]
  Vd: 1.48 L/kg
[17]
  half-life: 4.2 h
Aurora kinase A [1]
  IC50: 31 nM
[25]
  clearance: 20.3 mL/min/kg
Rattus norvegicus [26]
  Activity: Toxic
[27]
  bioavailability: 100%
[20]
  fraction unbound: < 0.02
[7]
  Cmax: 5200 ng/mL
Caco-2 [6]
  permeability: 79 ×10⁻⁶ cm/s
Rattus norvegicus [22]
  Activity: Toxic
Rattus norvegicus [9]
  AUC: 13800 ng·h/mL
[28]
  inhibition (INH): Not Active
[10]
  IC50: 330 nM
Rattus norvegicus [23]
  Activity: Toxic
Aurora kinase A [24]
  Ki: 7 nM
